Experiments:
[1] = target: T1, Peroxisome proliferator-activated receptor delta (Mus musculus, UniProt P35396); assay: Agonist activity at mouse PPARdelta expressed in CV-1 cells by reporter gene assay; type: cell-based
T1 sequence (P35396 whole entry): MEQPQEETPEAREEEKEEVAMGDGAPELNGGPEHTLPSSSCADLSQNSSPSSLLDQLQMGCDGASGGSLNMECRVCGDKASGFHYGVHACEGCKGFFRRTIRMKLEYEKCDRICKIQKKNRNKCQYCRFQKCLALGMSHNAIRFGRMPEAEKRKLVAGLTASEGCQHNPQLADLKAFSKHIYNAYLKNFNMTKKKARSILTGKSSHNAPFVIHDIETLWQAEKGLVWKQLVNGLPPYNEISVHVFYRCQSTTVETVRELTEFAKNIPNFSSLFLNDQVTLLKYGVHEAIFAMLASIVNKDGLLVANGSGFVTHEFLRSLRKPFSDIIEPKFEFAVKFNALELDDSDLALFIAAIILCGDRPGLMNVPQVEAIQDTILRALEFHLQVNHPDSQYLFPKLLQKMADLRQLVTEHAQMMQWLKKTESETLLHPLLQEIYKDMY

[2] = target: T2, Peroxisome proliferator-activated receptor alpha (Mus musculus, UniProt P23204); assay: Agonist activity at mouse PPARalpha expressed in CV-1 cells by reporter gene assay; type: cell-based
T2 sequence (P23204 whole entry): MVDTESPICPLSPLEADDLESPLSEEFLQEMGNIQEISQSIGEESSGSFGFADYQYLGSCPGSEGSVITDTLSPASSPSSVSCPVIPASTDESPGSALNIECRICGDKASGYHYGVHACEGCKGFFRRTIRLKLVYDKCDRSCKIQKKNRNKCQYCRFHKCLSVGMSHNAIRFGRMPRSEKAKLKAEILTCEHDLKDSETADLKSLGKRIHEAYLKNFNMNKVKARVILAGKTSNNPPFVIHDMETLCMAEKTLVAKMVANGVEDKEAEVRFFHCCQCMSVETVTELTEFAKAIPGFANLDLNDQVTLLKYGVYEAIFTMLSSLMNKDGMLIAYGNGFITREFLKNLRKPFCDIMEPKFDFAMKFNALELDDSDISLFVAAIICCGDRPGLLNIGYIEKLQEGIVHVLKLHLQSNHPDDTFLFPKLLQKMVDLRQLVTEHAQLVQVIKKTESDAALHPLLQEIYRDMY

[3] = target: T3, Peroxisome proliferator-activated receptor gamma (Mus musculus) (UniProt P37238); assay: Agonist activity at mouse PPARgamma expressed in CV-1 cells by reporter gene assay relative to rosiglitazone; type: cell-based
T3 sequence (whole entry): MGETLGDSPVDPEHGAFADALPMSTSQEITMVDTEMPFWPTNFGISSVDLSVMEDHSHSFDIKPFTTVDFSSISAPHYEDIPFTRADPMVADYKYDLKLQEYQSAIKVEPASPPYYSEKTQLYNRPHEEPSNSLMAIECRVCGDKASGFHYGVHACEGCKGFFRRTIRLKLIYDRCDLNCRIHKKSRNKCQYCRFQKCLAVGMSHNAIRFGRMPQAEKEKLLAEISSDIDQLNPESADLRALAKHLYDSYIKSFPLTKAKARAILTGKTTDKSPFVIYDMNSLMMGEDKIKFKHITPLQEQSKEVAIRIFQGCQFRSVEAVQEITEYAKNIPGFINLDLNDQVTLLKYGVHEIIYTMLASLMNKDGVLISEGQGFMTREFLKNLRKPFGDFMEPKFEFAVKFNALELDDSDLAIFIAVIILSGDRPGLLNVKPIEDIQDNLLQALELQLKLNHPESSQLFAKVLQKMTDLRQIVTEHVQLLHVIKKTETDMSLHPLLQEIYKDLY

[4] = target: T4, Peroxisome proliferator-activated receptor gamma (Mus musculus, UniProt P37238); assay: Agonist activity at mouse PPARgamma expressed in CV-1 cells by reporter gene assay; type: cell-based
T4 sequence (P37238 whole entry): T3 sequence (whole entry)

[5] = target: T5, Peroxisome proliferator-activated receptor gamma (Homo sapiens, UniProt P37231); assay: Agonist activity at human PPARgamma expressed in CV-1 cells by reporter gene assay; type: cell-based
T5 sequence (P37231 whole entry): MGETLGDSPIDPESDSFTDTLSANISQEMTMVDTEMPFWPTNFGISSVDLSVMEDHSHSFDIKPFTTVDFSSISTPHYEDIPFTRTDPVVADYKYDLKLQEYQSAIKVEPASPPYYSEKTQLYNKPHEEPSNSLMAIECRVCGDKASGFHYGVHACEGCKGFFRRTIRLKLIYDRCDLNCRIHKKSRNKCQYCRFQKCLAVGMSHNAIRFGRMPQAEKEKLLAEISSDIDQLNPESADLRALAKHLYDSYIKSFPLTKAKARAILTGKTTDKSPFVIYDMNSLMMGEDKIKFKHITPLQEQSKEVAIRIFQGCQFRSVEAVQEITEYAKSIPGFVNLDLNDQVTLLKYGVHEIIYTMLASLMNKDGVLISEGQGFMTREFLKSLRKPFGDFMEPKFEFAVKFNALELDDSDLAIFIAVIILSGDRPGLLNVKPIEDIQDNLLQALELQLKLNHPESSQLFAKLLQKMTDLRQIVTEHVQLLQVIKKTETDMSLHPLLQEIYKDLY

[6] = target: T6, Type-1 angiotensin II receptor (Homo sapiens, UniProt P30556); assay: Antagonist activity at human AT1 receptor expressed in CHO cells measured after overnight incubation by luciferase reporter gene assay; type: cell-based
T6 sequence (P30556 whole entry): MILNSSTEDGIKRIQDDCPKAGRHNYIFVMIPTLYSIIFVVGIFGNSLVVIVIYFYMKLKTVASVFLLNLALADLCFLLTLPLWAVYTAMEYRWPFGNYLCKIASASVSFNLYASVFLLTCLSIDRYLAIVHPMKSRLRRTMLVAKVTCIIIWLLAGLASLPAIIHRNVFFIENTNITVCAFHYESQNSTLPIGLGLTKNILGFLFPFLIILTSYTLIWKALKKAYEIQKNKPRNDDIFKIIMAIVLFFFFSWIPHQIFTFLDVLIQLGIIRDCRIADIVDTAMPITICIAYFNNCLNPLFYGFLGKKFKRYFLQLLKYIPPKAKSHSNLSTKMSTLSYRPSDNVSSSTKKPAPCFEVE

[7] = target: T3, Peroxisome proliferator-activated receptor gamma (Mus musculus); assay: Partial agonist activity at mouse PPARgamma expressed in CV-1 cells by reporter gene assay relative to rosiglitazone; type: cell-based
[8] = target: T4, Peroxisome proliferator-activated receptor gamma; assay: Partial agonist activity at mouse PPARgamma expressed in CV-1 cells by reporter gene assay; type: cell-based
[9] = target: T7, Peroxisome proliferator-activated receptor gamma (Homo sapiens) (UniProt P37231); assay: Partial agonist activity at human PPARgamma expressed in CV-1 cells by reporter gene assay relative to rosiglitazone; type: cell-based
T7 sequence (whole entry): T5 sequence (P37231 whole entry)

[10] = target: T5, Peroxisome proliferator-activated receptor gamma; assay: Partial agonist activity at human PPARgamma expressed in CV-1 cells by reporter gene assay; type: cell-based
[11] = target: T8, Peroxisome proliferator-activated receptor alpha (Mus musculus) (UniProt P23204); assay: Agonist activity at mouse PPARalpha expressed in CV-1 cells by reporter gene assay relative to rosiglitazone
T8 sequence (whole entry): T2 sequence (P23204 whole entry)

| Structure (SMILES) | EC50 [1] | EC50 [2] | max activation [3] | EC50 [4] | EC50 [5] | IC50 [6] | max activation [7] | EC50 [8] | max activation [9] | EC50 [10] | max activation [11] |
| --- | --- | --- | --- | --- | --- | --- | --- | --- | --- | --- | --- |
| CCCc1nn2ccc(-c3nc4ccccc4n3CCC)cc2c1Cc1ccc(-c2ccccc2C(=O)O)cc1 | > 10000 nM | > 10000 nM | 27% | 380 nM | 280 nM | 85 nM |  |  |  |  |  |
| CCCc1nn2ccc(-c3nc4ccccc4n3CCC)cc2c1Cc1ccc(-c2ccccc2-c2nn[nH]n2)cc1 |  |  | 60% |  |  |  |  |  |  |  |  |
| CCCn1nc2ccc(C(=O)NC(CC)c3ccccc3)cc2c1Cc1ccc(-c2ccccc2C(=O)O)cc1 (stereo not drawn) | > 10000 nM | > 10000 nM |  |  |  | 1000 nM | 19% | 250 nM | 24% | 130 nM |  |
| CCCc1c(Cc2ccc(-c3ccccc3C(=O)O)cc2)c2ccc(C(=O)NC(CC)c3ccccc3)cc2n1C (stereo not drawn) |  | 170 nM | 42% | 3 nM | 2 nM | > 10000 nM |  |  |  |  | 90% |
| CCC(NC(=O)c1ccc2c(c1)c(C)c(C)n2Cc1ccc(-c2ccccc2C(=O)O)cc1)c1ccccc1 (stereo not drawn) |  |  |  |  |  | > 10000 nM |  |  |  |  |  |
| CCCc1[nH]c2ccc(C(=O)NC(CC)c3ccccc3)cc2c1Cc1ccc(-c2ccccc2C(=O)O)cc1 (stereo not drawn) |  | > 10000 nM | 24% | 510 nM | 350 nM | > 10000 nM |  |  |  |  |  |
| CCCc1nn2ccc(C(=O)NC(CC)c3ccccc3)cc2c1Cc1ccc(-c2ccccc2C(=O)O)cc1 (stereo not drawn) | > 10000 nM | > 10000 nM | 32% | 1020 nM | 390 nM | 1690 nM |  |  |  |  |  |
| CCCc1[nH]c2cc(C(=O)NC(CC)c3ccccc3)ccc2c1Cc1ccc(-c2ccccc2C(=O)O)cc1 (stereo not drawn) |  | 790 nM | 36% | 9 nM | 6 nM | > 10000 nM |  |  |  |  | 71% |

— ChEMBL document CHEMBL3112505, “Discovery of novel indazole derivatives as dual angiotensin II antagonists and partial PPARγ agonists” (Bioorg Med Chem Lett, 2014)
